Measurements reported in ChEMBL document CHEMBL3885861, “Open TG-GATES”.

Organism: Rattus norvegicus
Assay: Open TG-GATES - Regimen: Daily Repeat
Type: toxicity, organism-based, Sprague-Dawley
Design: regimen Daily Repeat, gender Male, age 6 weeks
Conditions: in vivo, po, route gavage; for APTT / Bas / Eos / Fbg / Ht / Lym / MCH / MCHC / MCV / Mono / Neu / PT / Plat / RBC / Ret / WBC: tissue Blood; for KIDNEY_L / KIDNEY_R / KIDNEY_TOTAL: tissue Kidney; for LIVER: tissue Liver; for ALP / ALT / AST / BUN / CRE / Ca / Cl / DBIL / GLC / IP / K / LDH / Na / PL / RALB / TBIL / TC / TG / TP / gamma-GTP: tissue Plasma
[1] = 0 mg/kg, 72 h, dose level Control, time 3 day
[2] = 0 mg/kg, […], dose level Control, time 7 day
[3] = 0 mg/kg, […], dose level Control, time 14 day
[4] = 0 mg/kg, […], dose level Control, time 28 day
[5] = 10 mg/kg, 72 h, dose level Low, time 3 day
[6] = 10 mg/kg, […], dose level Low, time 7 day
[7] = 10 mg/kg, […], dose level Low, time 14 day
[8] = 10 mg/kg, […], dose level Low, time 28 day

## Cc1cccc(Nc2cc(Cl)nc(SCC(=O)O)n2)c1C [PIRINIXIC ACID]
[1]
  TERMINAL_BW: 233.5 g
  APTT: 16.4 s
  Bas: 0%
  Eos: 1.2%
  Fbg: 285 mg/dL
  Ht: 39.4%
  Lym: 75.2%
  MCH: 22.2 pg
  MCHC: 34.4%
  MCV: 64.7 fL
  Mono: 2.8%
  Neu: 20.2%
  PT: 12.3 s
  Plat: 109.1 x10_4/uL
  RBC: 609.4 x10_4/ul
  Ret: 7%
  WBC: 85.4 x10_2/uL
  KIDNEY_L: 1 g
  KIDNEY_R: 1 g
  KIDNEY_TOTAL: 1.9 g
  LIVER: 10.9 g
  ALP: 1563.4 IU/L
  ALT: 50 IU/L
  AST: 77 IU/L
  BUN: 15.8 mg/dL
  CRE: 0.2 mg/dL
  Ca: 10.8 mg/dL
  Cl: 105.4 meq/L
  DBIL: 0.024 mg/dL
  GLC: 201.2 mg/dL
  IP: 8.2 mg/dL
  K: 3.8 meq/L
  LDH: 80.4 IU/L
  Na: 143 meq/L
  PL: 155 mg/dL
  RALB: 2.6 g/dL
  TBIL: 0.032 mg/dL
  TC: 79.6 mg/dL
  TG: 92.8 mg/dL
  TP: 5.5 g/dL
  gamma-GTP: 1.6 IU/L
[2]
  TERMINAL_BW: 265.8 g
  APTT: 16.6 s
  Bas: 0%
  Eos: 0.4%
  Fbg: 312.6 mg/dL
  Ht: 40.4%
  Lym: 83.4%
  MCH: 21.7 pg
  MCHC: 34.7%
  MCV: 62.3 fL
  Mono: 2.2%
  Neu: 13.8%
  PT: 12.3 s
  Plat: 127.6 x10_4/uL
  RBC: 648.6 x10_4/ul
  Ret: 5.5%
  WBC: 89.6 x10_2/uL
  KIDNEY_L: 1.1 g
  KIDNEY_R: 1 g
  KIDNEY_TOTAL: 2.1 g
  LIVER: 12.4 g
  ALP: 1820.8 IU/L
  ALT: 48.8 IU/L
  AST: 67.6 IU/L
  BUN: 19.4 mg/dL
  CRE: 0.2 mg/dL
  Ca: 11 mg/dL
  Cl: 105 meq/L
  DBIL: 0.02 mg/dL
  GLC: 205.6 mg/dL
  IP: 7.1 mg/dL
  K: 4 meq/L
  LDH: 80 IU/L
  Na: 142.4 meq/L
  PL: 164.2 mg/dL
  RALB: 2.7 g/dL
  TBIL: 0.036 mg/dL
  TC: 80.8 mg/dL
  TG: 128.4 mg/dL
  TP: 5.9 g/dL
  gamma-GTP: 1 IU/L
[3]
  TERMINAL_BW: 320.3 g
  APTT: 15.5 s
  Bas: 0%
  Eos: 0.8%
  Fbg: 324.2 mg/dL
  Ht: 41.1%
  Lym: 77.6%
  MCH: 20.2 pg
  MCHC: 35.2%
  MCV: 57.3 fL
  Mono: 2.4%
  Neu: 18.6%
  PT: 12.4 s
  Plat: 119.6 x10_4/uL
  RBC: 716.8 x10_4/ul
  Ret: 4.1%
  WBC: 101.8 x10_2/uL
  KIDNEY_L: 1.2 g
  KIDNEY_R: 1.2 g
  KIDNEY_TOTAL: 2.5 g
  LIVER: 14.7 g
  ALP: 1141.6 IU/L
  ALT: 41.2 IU/L
  AST: 65.8 IU/L
  BUN: 16 mg/dL
  CRE: 0.2 mg/dL
  Ca: 10.6 mg/dL
  Cl: 105.2 meq/L
  DBIL: 0.016 mg/dL
  GLC: 202.4 mg/dL
  IP: 7.1 mg/dL
  K: 3.8 meq/L
  LDH: 78.8 IU/L
  Na: 143.4 meq/L
  PL: 139.6 mg/dL
  RALB: 2.8 g/dL
  TBIL: 0.03 mg/dL
  TC: 69 mg/dL
  TG: 117.4 mg/dL
  TP: 6 g/dL
  gamma-GTP: 1.2 IU/L
[4]
  TERMINAL_BW: 387.5 g
  APTT: 17.7 s
  Bas: 0%
  Eos: 1.2%
  Fbg: 284.6 mg/dL
  Ht: 44.2%
  Lym: 75%
  MCH: 19.8 pg
  MCHC: 35.6%
  MCV: 55.5 fL
  Mono: 2.4%
  Neu: 20.6%
  PT: 12.3 s
  Plat: 100.6 x10_4/uL
  RBC: 796.8 x10_4/ul
  Ret: 2.3%
  WBC: 82.2 x10_2/uL
  KIDNEY_L: 1.4 g
  KIDNEY_R: 1.3 g
  KIDNEY_TOTAL: 2.7 g
  LIVER: 15.5 g
  ALP: 955.2 IU/L
  ALT: 36.2 IU/L
  AST: 59.4 IU/L
  BUN: 14 mg/dL
  CRE: 0.2 mg/dL
  Ca: 10.7 mg/dL
  Cl: 106.6 meq/L
  DBIL: 0.018 mg/dL
  GLC: 199 mg/dL
  IP: 6.5 mg/dL
  K: 3.5 meq/L
  LDH: 48.8 IU/L
  Na: 144.2 meq/L
  PL: 139.6 mg/dL
  RALB: 2.8 g/dL
  TBIL: 0.064 mg/dL
  TC: 75.8 mg/dL
  TG: 90.4 mg/dL
  TP: 6.4 g/dL
  gamma-GTP: 1 IU/L
[5]
  TERMINAL_BW: 232.6 g
  APTT: 15.8 s
  Bas: 0%
  Eos: 1%
  Fbg: 215.2 mg/dL
  Ht: 39%
  Lym: 76.6%
  MCH: 21.6 pg
  MCHC: 34%
  MCV: 63.6 fL
  Mono: 2.6%
  Neu: 19.2%
  PT: 12.5 s
  Plat: 111.3 x10_4/uL
  RBC: 612.8 x10_4/ul
  Ret: 6.1%
  WBC: 76.7 x10_2/uL
  KIDNEY_L: 1 g
  KIDNEY_R: 1 g
  KIDNEY_TOTAL: 1.9 g
  LIVER: 14.4 g
  ALP: 2039.8 IU/L
  ALT: 60.6 IU/L
  AST: 81.6 IU/L
  BUN: 14.6 mg/dL
  CRE: 0.2 mg/dL
  Ca: 10.8 mg/dL
  Cl: 106 meq/L
  DBIL: 0.02 mg/dL
  GLC: 210 mg/dL
  IP: 7.5 mg/dL
  K: 4.1 meq/L
  LDH: 90 IU/L
  Na: 143.8 meq/L
  PL: 111.8 mg/dL
  RALB: 2.7 g/dL
  TBIL: 0.03 mg/dL
  TC: 55 mg/dL
  TG: 31.2 mg/dL
  TP: 5.4 g/dL
  gamma-GTP: 1.2 IU/L
[6]
  TERMINAL_BW: 276.5 g
  APTT: 17.8 s
  Bas: 0%
  Eos: 1%
  Fbg: 262.8 mg/dL
  Ht: 38.4%
  Lym: 76.4%
  MCH: 21.6 pg
  MCHC: 34.9%
  MCV: 61.8 fL
  Mono: 3.2%
  Neu: 19.2%
  PT: 12.6 s
  Plat: 130.2 x10_4/uL
  RBC: 621.6 x10_4/ul
  Ret: 5.9%
  WBC: 93.9 x10_2/uL
  KIDNEY_L: 1.2 g
  KIDNEY_R: 1.1 g
  KIDNEY_TOTAL: 2.3 g
  LIVER: 20.3 g
  ALP: 1837.8 IU/L
  ALT: 49.2 IU/L
  AST: 65.4 IU/L
  BUN: 18.4 mg/dL
  CRE: 0.2 mg/dL
  Ca: 11.2 mg/dL
  Cl: 102.4 meq/L
  DBIL: 0.014 mg/dL
  GLC: 202.6 mg/dL
  IP: 7.2 mg/dL
  K: 4.2 meq/L
  LDH: 98.8 IU/L
  Na: 142.2 meq/L
  PL: 148.6 mg/dL
  RALB: 3 g/dL
  TBIL: 0.026 mg/dL
  TC: 77.6 mg/dL
  TG: 60.4 mg/dL
  TP: 6.2 g/dL
  gamma-GTP: 1 IU/L
[7]
  TERMINAL_BW: 313.7 g
  APTT: 17.3 s
  Bas: 0.2%
  Eos: 1%
  Fbg: 262.8 mg/dL
  Ht: 38.9%
  Lym: 78.8%
  MCH: 20.7 pg
  MCHC: 35.3%
  MCV: 58.6 fL
  Mono: 2.8%
  Neu: 16%
  PT: 12.5 s
  Plat: 132.4 x10_4/uL
  RBC: 664.6 x10_4/ul
  Ret: 4.7%
  WBC: 110.5 x10_2/uL
  KIDNEY_L: 1.3 g
  KIDNEY_R: 1.3 g
  KIDNEY_TOTAL: 2.6 g
  LIVER: 22.8 g
  ALP: 1550.8 IU/L
  ALT: 45 IU/L
  AST: 64 IU/L
  BUN: 17.4 mg/dL
  CRE: 0.2 mg/dL
  Ca: 10.5 mg/dL
  Cl: 103.2 meq/L
  DBIL: 0.016 mg/dL
  GLC: 206.8 mg/dL
  IP: 7.4 mg/dL
  K: 3.8 meq/L
  LDH: 97.2 IU/L
  Na: 142.2 meq/L
  PL: 144.2 mg/dL
  RALB: 2.9 g/dL
  TBIL: 0.032 mg/dL
  TC: 67.2 mg/dL
  TG: 53.6 mg/dL
  TP: 6.2 g/dL
  gamma-GTP: 1.2 IU/L
[8]
  TERMINAL_BW: 373.2 g
  APTT: 16.3 s
  Bas: 0%
  Eos: 1%
  Fbg: 251.2 mg/dL
  Ht: 39.5%
  Lym: 76.8%
  MCH: 19.7 pg
  MCHC: 35.9%
  MCV: 54.9 fL
  Mono: 3.6%
  Neu: 18%
  PT: 12.2 s
  Plat: 118 x10_4/uL
  RBC: 720.4 x10_4/ul
  Ret: 2.7%
  WBC: 97.4 x10_2/uL
  KIDNEY_L: 1.4 g
  KIDNEY_R: 1.4 g
  KIDNEY_TOTAL: 2.9 g
  LIVER: 26.4 g
  ALP: 1413.8 IU/L
  ALT: 50.4 IU/L
  AST: 63.6 IU/L
  BUN: 17.6 mg/dL
  CRE: 0.2 mg/dL
  Ca: 11 mg/dL
  Cl: 103.8 meq/L
  DBIL: 0.014 mg/dL
  GLC: 188.6 mg/dL
  IP: 7.4 mg/dL
  K: 3.7 meq/L
  LDH: 115 IU/L
  Na: 143 meq/L
  PL: 155.2 mg/dL
  RALB: 3.1 g/dL
  TBIL: 0.048 mg/dL
  TC: 79.4 mg/dL
  TG: 63.4 mg/dL
  TP: 6.8 g/dL
